# What was measured:
# [1] = tested on: Echinochloa crus-galli; assay: Foliar spray on potted weeds at two to three leaf stage in greenhouse, herbicidal effect (Example 101); assay type: in vivo, inubie (common barnyardgrass; Echinochloa crus-galli); conditions: one week after spray
# Experimental: (§1) A plastic pot was filled with a commercially-available culture soil, and thereto inubie (common barnyardgrass; Echinochloa crus-galli) or akinoenokorogusa (giant foxtail; Setaria faberi) was seeded, and covered with the soil to about 0.5 cm, followed by growing the weeds in a greenhouse. When the weeds grew to two to three leaf stage, a spray liquid of the compound X, a spray liquid of pyroxasulfone, or a spray liquid of the present composition was uniformly sprayed to the whole plants so that the application rate might be a predetermined value. The spray liquid of the present composition was prepared by mixing the spray liquid of the compound X with the spray liquid of pyroxasulfone. The spray liquid of the compound X was prepared by mixing a predetermined amount of the formulation X with deionized water. The spray liquid of pyroxasulfone was prepared by dissolving pyroxasulfone with a 2 wt % solution of TWEEN® (polyoxyethylenesorbitan fatty acid ester, manufactured by MP Biomedicals) in dimethylformamide, followed by mixing with deionized water. After applying the spray liquid, the plants were placed in a greenhouse for a week. A herbicidal effect was evaluated by classifying the effect into 101 stages from 0 (no effect) to 100 (completely dead).
# (§2) The expected value of the herbicidal effect in the case of mixed use was calculated from the result of the herbicidal effect in the case of single use of each of the compounds (the value of A or B) according to the formula of Colby ((expected value)=100−(100−A)×(100−B)/100).
# [2] = tested on: Setaria faberi; assay: as above; assay type: in vivo, akinoenokorogusa (giant foxtail; Setaria faberi); conditions: one week after spray
# Experimental: as §1, §2
# [3] = Compound X 5 g/ha alone, scale 0 (no effect) to 100 (completely dead)
# [4] = Compound X 10 g/ha alone, scale 0 to 100
# [5] = pyroxasulfone 10 g/ha alone, scale 0 to 100
# [6] = pyroxasulfone 100 g/ha alone, scale 0 to 100
Compound,"Herbicidal effect on Echinochloa crus-galli (observed value) [1, 3]","Herbicidal effect on Echinochloa crus-galli (observed value) [1, 4]","Herbicidal effect on Setaria faberi (observed value) [2, 3]","Herbicidal effect on Setaria faberi (observed value) [2, 4]","Herbicidal effect on Echinochloa crus-galli (observed value) [1, 5]","Herbicidal effect on Echinochloa crus-galli (observed value) [1, 6]","Herbicidal effect on Setaria faberi (observed value) [2, 5]","Herbicidal effect on Setaria faberi (observed value) [2, 6]"
"CCOC(=O)COc1ncccc1Oc1cc(-n2c(=O)cc(C(F)(F)F)n(C)c2=O)c(F)cc1Cl [Compound X, ethyl [3-[2-chloro-4-fluoro-5-(1-methyl-6-trifluoromethyl-2,4-dioxo-1,2,3,4-tetrahydropyrimidin-3-yl)phenoxy]-2-pyridyloxy]acetate]",20,35,30,45,–,–,–,–
Cn1nc(C(F)(F)F)c(CS(=O)(=O)C2=NOC(C)(C)C2)c1OC(F)F [pyroxasulfone],–,–,–,–,0,0,0,0

# — patent US10624347B2, “Herbicidal composition and method for controlling weeds” (Sumitomo Chemical Company, Limited, priority 2016, dated 2020)
